Measured values: US20250241978A1, “PEPTIDE FOR PREVENTION OR TREATMENT OF COVID-19” (priority 2020, published 2025)

Tested on: severe COVID-19 patients
Assay: Observation of seriously ill COVID-19 ICU patients treated with orally inhaled solnatide (Example 2)
Procedure: Community patients with serious health conditions were admitted to a local hospital for examination. In some of these patients, COVID-19 was confirmed by positive testing for SARS-CoV-2 by nasopharyngeal swab and real-time RT-PCR.
Following worsening of conditions, seriously ill COVID-19 patients were admitted to the ICU of the hospital.
These patients were treated with placebo only in addition to standard critical care treatment and life support.
During an observation period of 7 days, patient-centred clinical parameters which reflect the severity of COVID-19 were recorded.
The SOFA score was used to track a patient's status during the stay in an intensive care unit (ICU) to determine the extent of the patient's organ function or rate of failure.

For cyclo-CGQRETPEGAEAKPWYC [solnatide], the “mean SOFA score at end of treatment period” value (COVID-19 ICU patients, orally inhaled solnatide twice daily plus standard critical care, after 7-day treatment period, FIG. 1) was 8, the “mean SOFA score at start of treatment period” value (COVID-19 ICU patients, orally inhaled solnatide twice daily plus standard critical care, start of 7-day treatment, FIG. 1) was 12 and the “mean body temperature, change during treatment” value (COVID-19 ICU patients, orally inhaled solnatide twice daily, 7-day treatment period, elevated at initiation, FIG. 3) was “decreased”. For the same substance, the “mean dynamic lung compliance at end of treatment period” value (COVID-19 ICU patients, orally inhaled solnatide twice daily, after 7-day treatment period, FIG. 2) was 50 mL/cm H2O, the “mean dynamic lung compliance at start of treatment period” value (COVID-19 ICU patients, orally inhaled solnatide twice daily, start of 7-day treatment, FIG. 2) was “approx. 35 mL/cm H2O” and the “patients who died within 28 days after onset of COVID-19 symptoms” value (severe COVID-19 patients treated with solnatide, comparator cohort: 3 patients died) was “none”.
